Experimental data reported in the supplement of paper PMC11451515.

Tested on: NOMO1
Experiment: cell viability relative to DMSO control; higher = less cytotoxic
Details: 48 h
Procedure, shortened: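 NOMO1 or SEM (500 cells/well) or P12-Ichikawa (1000 cells/well) leukemia cells were adapted for at least four passages in each medium. They were seeded in 1536-well plates (5 μl) and pin-dosed with library compounds in DMSO over an 11-point threefold series, 47 μM to 0.79 nM. CellTiter-Glo One luminescence was read after 48 h at 37°C. Viability is the per-plate percentage relative to DMSO wells, with cell-free wells as background.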

[1] = HPLM + 10% dialyzed FBS, 0.000781 µM
[2] = HPLM + 10% dialyzed FBS, 0.00234 µM
[3] = HPLM + 10% dialyzed FBS, 0.00702 µM
[4] = HPLM + 10% dialyzed FBS, 0.0211 µM
[5] = HPLM + 10% dialyzed FBS, 0.0632 µM
[6] = HPLM + 10% dialyzed FBS, 0.19 µM
[7] = HPLM + 10% dialyzed FBS, 0.569 µM
[8] = HPLM + 10% dialyzed FBS, 1.71 µM
[9] = HPLM + 10% dialyzed FBS, 5.12 µM
[10] = HPLM + 10% dialyzed FBS, 15.4 µM
[11] = HPLM + 10% dialyzed FBS, 46.1 µM
[12] = RPMI 5 mM glucose + 10% FBS, 0.000781 µM
[13] = RPMI 5 mM glucose + 10% FBS, 0.00234 µM
[14] = RPMI 5 mM glucose + 10% FBS, 0.00702 µM
[15] = RPMI 5 mM glucose + 10% FBS, 0.0211 µM
[16] = RPMI 5 mM glucose + 10% FBS, 0.0632 µM
[17] = RPMI 5 mM glucose + 10% FBS, 0.19 µM
[18] = RPMI 5 mM glucose + 10% FBS, 0.569 µM
[19] = RPMI 5 mM glucose + 10% FBS, 1.71 µM
[20] = RPMI 5 mM glucose + 10% FBS, 5.12 µM
[21] = RPMI 5 mM glucose + 10% FBS, 15.4 µM
[22] = RPMI 5 mM glucose + 10% FBS, 46.1 µM
[23] = RPMI 5 mM glucose + 10% dialyzed FBS, 0.000781 µM
[24] = RPMI 5 mM glucose + 10% dialyzed FBS, 0.00234 µM
[25] = RPMI 5 mM glucose + 10% dialyzed FBS, 0.00702 µM
[26] = RPMI 5 mM glucose + 10% dialyzed FBS, 0.0211 µM
[27] = RPMI 5 mM glucose + 10% dialyzed FBS, 0.0632 µM
[28] = RPMI 5 mM glucose + 10% dialyzed FBS, 0.19 µM
[29] = RPMI 5 mM glucose + 10% dialyzed FBS, 0.569 µM
[30] = RPMI 5 mM glucose + 10% dialyzed FBS, 1.71 µM
[31] = RPMI 5 mM glucose + 10% dialyzed FBS, 5.12 µM
[32] = RPMI 5 mM glucose + 10% dialyzed FBS, 15.4 µM
[33] = RPMI 5 mM glucose + 10% dialyzed FBS, 46.1 µM

Row | Structure (SMILES) | cell viability [1] | cell viability [2] | cell viability [3] | cell viability [4] | cell viability [5] | cell viability [6] | cell viability [7] | cell viability [8] | cell viability [9] | cell viability [10] | cell viability [11] | cell viability [12] | cell viability [13] | cell viability [14] | cell viability [15] | cell viability [16] | cell viability [17] | cell viability [18] | cell viability [19] | cell viability [20] | cell viability [21] | cell viability [22] | cell viability [23] | cell viability [24] | cell viability [25] | cell viability [26] | cell viability [27] | cell viability [28] | cell viability [29] | cell viability [30] | cell viability [31] | cell viability [32] | cell viability [33]
1 | C/C(=N\NC(=S)N1CCC1)c1ccccn1 | 104% | 76.1% | 48.5% | 29.9% | 20.8% | 6.85% | 5.67% | 4.05% | 2.98% | 15.2% | 5.74% | 107% | 96.5% | 74.6% | 15.3% | 13% | 7.95% | 6.53% | 8.3% | 2.84% | 13.7% | 11.8% | 99.3% | 93.6% | 37.7% | 19.6% | 17.9% | 8.08% | 6.69% | 5.23% | 2.95% | 8.3% | 13.1%
2 | CCN1\C=C(\C(O)=O)C(=O)C2=C1N=C(N3CCNCC3)C(=C2)F | 74.8% | 73.4% | 85.3% | 93% | 88.6% | 82.2% | 86.2% | 84.3% | 46% | 42% | 20.3% | 78% | 83.9% | 93% | 83.8% | 81.1% | 85.1% | 79% | 86.4% | 81.4% | 79.1% | 16% | 55.2% | 91% | 81.6% | 82.5% | 79.2% | 74.1% | 82.6% | 82.5% | 81% | 76.3% | 20.1%
3 | O=[N+]([O-])c1ncc[nH]1 | 90.7% | 84.4% | 90.2% | 78.4% | 91% | 97.4% | 89.7% | 89.4% | 80.8% | 91.7% | 75.8% | 86.3% | 85.5% | 90.9% | 84.2% | 90.9% | 87.3% | 84.1% | 76.9% | 80.3% | 85.7% | 74% | 88.5% | 93.7% | 88.7% | 87.2% | 75.8% | 82.5% | 78.6% | 81% | 83.2% | 76.1% | 87.7%
4 | COc1cc(Nc2c(C#N)cnc3cc(OCCCN4CCN(C)CC4)c(OC)cc23)c(Cl)cc1Cl | 123% | 121% | 118% | 111% | 116% | 105% | 121% | 83.6% | 52.1% | 9.63% | 7.18% | 109% | 115% | 126% | 119% | 126% | 118% | 112% | 106% | 82.4% | 13.7% | 7.22% | 103% | 105% | 112% | 113% | 116% | 114% | 112% | 120% | 85.8% | 26% | 10.6%
5 | CC[C@]12CC[C@H]3[C@@H](CCC/4=C/C(=O)CC[C@H]34)[C@@H]1CC[C@@]2(O)C#C | 100% | 92.6% | 101% | 85.8% | 97.1% | 94.4% | 86.6% | 72.4% | 89.2% | 80.4% | 69.8% | 92.7% | 78.8% | 95% | 88.5% | 81.8% | 75.1% | 72.2% | 76.3% | 82.5% | 73.5% | 70.8% | 82.1% | 77.5% | 77.7% | 86.6% | 75.4% | 77.6% | 79.7% | 78.5% | 74.1% | 74.9% | 84.5%
6 | CC(=O)OC[C@H]1O[C@@H]([S-])[C@H](OC(C)=O)[C@@H](OC(C)=O)[C@@H]1OC(C)=O.CCP(CC)CC.[Au+] | 80.7% | 84.3% | 96.5% | 92% | 75.9% | 93.7% | 96.7% | 93.8% | 31.5% | 7.92% | 5.33% | 86.7% | 99.2% | 85.4% | 96.4% | 98.4% | 104% | 106% | 89.8% | 18.8% | 6.15% | 5% | 88.3% | 96.7% | 90.5% | 96.2% | 91.7% | 94.5% | 95.4% | 88.7% | 40.8% | 5.52% | 4.43%
7 | CCc1cc(C(N)=S)ccn1 | 110% | 117% | 112% | 130% | 118% | 131% | 133% | 119% | 142% | 134% | 118% | 118% | 125% | 127% | 119% | 126% | 132% | 119% | 131% | 130% | 141% | 139% | 126% | 116% | 102% | 126% | 137% | 121% | 137% | 123% | 123% | 145% | 133%
8 | O=S(=O)([O-])CCS.[Na+] | 100% | 141% | 124% | 131% | 130% | 112% | 123% | 44.1% | 38.9% | 46.4% | 37.5% |  |  |  |  |  |  |  |  |  |  |  |  |  |  |  |  |  |  |  |  |  | 
9 | O=C(Nc1c[nH]nc1-c1nc2cc(CN3CCOCC3)ccc2[nH]1)NC1CC1 | 91.3% | 111% | 113% | 95.6% | 81.1% | 102% | 104% | 104% | 97.9% | 51% | 3.89% | 85.9% | 103% | 97.1% | 85.5% | 56.3% | 55.3% | 78.7% | 84.9% | 89.4% | 61.2% | 4.23% | 88.3% | 102% | 92.6% | 93.7% | 67.1% | 66.7% | 84% | 83% | 86.7% | 54.5% | 4.36%
10 | CC(C)=CCC/C(C)=C/CC/C(C)=C/CC/C(C)=C/CC/C(C)=C/CC/C(C)=C/CC/C(C)=C/CC/C(C)=C/CC/C(C)=C/CO | 117% | 123% | 105% | 92.7% | 107% | 114% | 112% | 117% | 100% | 96.6% | 102% | 95.7% | 96.3% | 108% | 100% | 101% | 105% | 115% | 104% | 92.6% | 92.8% | 88.3% | 92.2% | 91% | 111% | 93.6% | 103% | 113% | 94.4% | 95.6% | 91.6% | 87.7% | 86.9%
11 | Cc1ccc([N+](=O)[O-])cc1[S+](=O)([O-])N(C)/N=C/c1cnc2ccc(Br)cn12 | 110% | 116% | 107% | 89.8% | 56.5% | 12% | 6.54% | 5.77% | 4.83% | 4.05% | 3.68% | 121% | 105% | 95.9% | 98.7% | 84.6% | 17.3% | 7.83% | 5.79% | 5.05% | 4.32% | 4.08% | 102% | 93.9% | 100% | 94.2% | 76.1% | 19.2% | 5.29% | 4.54% | 4.24% | 4% | 2.94%
12 | NC(=O)Nc1sc(-c2ccc(F)cc2)cc1C(N)=O | 108% | 112% | 117% | 111% | 121% | 102% | 94.5% | 99.8% | 83.8% | 60.2% | 55.2% | 117% | 99.7% | 115% | 96% | 113% | 110% | 96.7% | 92.4% | 95.9% | 78% | 50.5% | 101% | 111% | 111% | 100% | 103% | 107% | 104% | 79.4% | 75.6% | 62% | 54.1%
13 | C[C@H]1C[C@H]2[C@@H]3CC[C@](O)(C(=O)CO)[C@@]3(C)C[C@H](O)[C@@H]2[C@@]\4(C)/C=C\C(=O)\C=C14 | 82.1% | 110% | 115% | 104% | 113% | 115% | 92.3% | 89.9% | 89.6% | 94.1% | 95.6% | 81.4% | 95.3% | 90.6% | 101% | 104% | 97.1% | 93.1% | 89.5% | 89.5% | 88.4% | 92.8% | 72.9% | 88.5% | 91.4% | 102% | 102% | 93.1% | 100% | 90.4% | 101% | 105% | 84.6%
14 | C[C@@H]1CCN(C(=O)CC#N)C[C@@H]1N(C)c1ncnc2[nH]ccc12 | 93.6% | 81.7% | 91.7% | 84.4% | 97.6% | 77.1% | 94.7% | 76.3% | 83.6% | 81.9% | 73.6% | 97.2% | 84.6% | 83.3% | 75.8% | 77.8% | 72% | 73.4% | 71.8% | 81.6% | 80.9% | 75.7% | 89% | 89.1% | 84.9% | 88.4% | 87.5% | 80.7% | 69.3% | 101% | 91.9% | 88.4% | 84.7%
15 | CN(C)c1ccc2nc3ccc(N(C)C)cc3[s+]c2c1 | 115% | 94.5% | 122% | 97.9% | 106% | 90.7% | 102% | 91.1% | 73.2% | 25.9% | 12.1% | 96% | 91.9% | 89.2% | 92.1% | 93.4% | 93.6% | 100% | 86.4% | 78.1% | 7.62% | 3.06% | 102% | 99.7% | 99.6% | 87.4% | 94.2% | 86.7% | 102% | 86.5% | 65% | 10.1% | 3.9%
16 | O=C(CCCCCCC(=O)Nc1ccc([C@H]2O[C@@H](CSc3nc(-c4ccccc4)c(-c4ccccc4)o3)C[C@@H](c3ccc(CO)cc3)O2)cc1)NO |  |  |  |  |  |  |  |  |  |  |  | 120% | 135% | 117% | 124% | 117% | 131% | 127% | 111% | 108% | 12.5% | 5.57% |  |  |  |  |  |  |  |  |  |  | 
